Source: the supplement of paper PMC10307832

Columns and labels:
Assay in all cases: relative viability (nuclei count vs DMSO), 5 days (fraction); higher = more cells survive
[1] = compound: C/C(=N\NC(=S)N1CCC1)/C2=CC=CC=N2 + O=C(CCCCCCC(=O)Nc1ccccc1)NO [Vorinostat] (partner 1 µM)
Procedure, shortened: (§1)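 Values are medians from duplicate plates. Each reflects relative viability, defined as the nuclei count of treated wells over that of vehicle wells. Lung cancer cell lines in 1536-well plates were pin-tool dosed one day after seeding with one drug alone or with a fixed anchor-drug dose plus five library-drug doses (not always all listed) in √10 steps, then fixed, stained and imaged at 4× after 5 days.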

[2] = compound: C/C(=N\NC(=S)N1CCC1)/C2=CC=CC=N2 + Nc1nc2[nH]cc(CCc3ccc(C(=O)N[C@@H](CCC(=O)O)C(=O)O)cc3)c2c(=O)[nH]1 [Pemetrexed] (partner 0.2 µM)
Procedure, shortened: as §1

[3] = compound: C/C(=N\NC(=S)N1CCC1)/C2=CC=CC=N2 + Cc1nc(Nc2ncc(C(=O)Nc3c(C)cccc3Cl)s2)cc(N2CCN(CCO)CC2)n1 [Dasatinib] (partner 0.075 µM)
Procedure, shortened: as §1

[4] = compound: C/C(=N\NC(=S)N1CCC1)/C2=CC=CC=N2 + CC(=O)c1c(C)c2cnc(Nc3ccc(N4CCNCC4)cn3)nc2n(C2CCCC2)c1=O [Palbociclib] (partner 0.5 µM)
Procedure, shortened: as §1

Cell Line	relative viability ([1]; first compound 0.05 µM)	relative viability ([1]; first compound 0.1581 µM)	relative viability ([1]; first compound 0.5 µM)	relative viability ([1]; first compound 1.581 µM)	relative viability ([1]; first compound 5 µM)	relative viability ([2]; first compound 0.05 µM)	relative viability ([2]; first compound 0.1581 µM)	relative viability ([2]; first compound 0.5 µM)	relative viability ([2]; first compound 1.581 µM)	relative viability ([2]; first compound 5 µM)	relative viability ([3]; first compound 0.05 µM)	relative viability ([3]; first compound 0.1581 µM)	relative viability ([3]; first compound 0.5 µM)	relative viability ([3]; first compound 1.581 µM)	relative viability ([3]; first compound 5 µM)	relative viability ([4]; first compound 0.05 µM)	relative viability ([4]; first compound 0.1581 µM)	relative viability ([4]; first compound 0.5 µM)	relative viability ([4]; first compound 1.581 µM)	relative viability ([4]; first compound 5 µM)
NCI-H2126	0.184	0.211	0.197	0.186	0.168	0.235	0.221	0.212	0.219	0.208	0.185	0.18	0.179	0.163	0.187	0.249	0.34	0.212	0.207	0.209
NCI-H2170	0.267	0.195	0.161	0.155	0.0916	0.235	0.208	0.202	0.155	0.116	0.164	0.167	0.145	0.125	0.161	0.37	0.378	0.17	0.131	0.121
NCI-H2228	0.231	0.15	0.166	0.156	0.145	0.107	0.147	0.116	0.0863	0.121	0.133	0.121	0.135	–	0.0925	0.134	0.167	0.127	0.0641	0.315
NCI-H2342	0.28	0.288	0.267	0.234	0.265	0.262	0.288	0.277	0.259	0.251	0.297	0.283	0.258	0.249	0.284	0.276	0.283	0.274	0.253	0.255
NCI-H2347	0.315	0.305	0.227	0.276	0.243	0.33	0.308	0.3	0.27	0.291	0.209	0.199	0.26	0.23	0.179	0.323	0.305	0.282	0.277	0.29
NCI-H2405	0.241	0.267	0.252	0.217	0.222	0.243	0.238	0.251	0.215	0.215	0.219	0.226	0.253	0.228	0.231	0.217	0.25	0.26	0.214	0.21
NCI-H3122	0.111	0.077	0.106	0.121	0.103	0.0953	0.11	0.11	0.149	0.15	0.0675	0.0912	0.0839	0.11	0.11	0.0974	0.166	0.103	0.148	0.127
PC-3 [JPC-3]	0.338	0.436	0.357	0.269	0.196	0.394	0.464	0.308	0.265	0.237	0.252	0.281	0.238	0.235	0.188	0.328	0.485	0.409	0.362	0.373
